According to patent US6849599B2, “Combination drug therapy” (priority 2000, dated 2005):

What was measured:
HT29 cells = assay: Tumor growth in nude mice bearing xenografts of human colon tumor cell line HT29; format: in vivo; conditions: for Treated tumor size/Control tumor size (T/C): p<0.05
Description: The antineoplastic activity of TSP plus CPT-11 was evaluated in an art-recognized model for cancer, nude mice bearing xenografts of the human colon tumor cell line HT29.

[1] = Toxicity and mortality in the treated HT29 xenograft nude mice; format: in vivo
Description: For in vivo studies, nude mice were inoculated subcutaneously in the left axillary region with 5×10^6 HT29 cells. When tumors were palpable (approximately 50 mg), mice were divided into groups (n=15-22) and treated as follows: (i) no treatment; (ii) TSP alone (5-40 mg/kg intraperitoneally) (iii) CPT-11 alone (100-300 mg/kg intraperitoneally); or (iv) TSP (20 mg/kg)+CPT-11 (150 mg/kg). TSP was injected daily while CPT-11 was administered on days 0, 7, 14, and 21. Mice were weighed and tumors measured twice weekly. […] Treated tumor size/Control tumor size (T/C) equaled 0.64 or 0.57, respectively. […] When TSP was combined with CPT-11, a highly significant inhibition of tumor growth was observed compared to control (T/C=0.1, with p=0.00002) and compared to CPT-11 alone (p=0.0008).

## Thrombospondin-1 [TSP]
HT29 cells; TSP alone 10 mg/kg intraperitoneally daily, day 28
  Treated tumor size/Control tumor size (T/C): 0.64
HT29 cells; TSP alone 20 mg/kg intraperitoneally daily, day 28
  Treated tumor size/Control tumor size (T/C): 0.57
HT29 cells; TSP alone, other doses of 5-40 mg/kg intraperitoneally daily, compared with 10 or 20 mg/kg
  Inhibition of tumor growth, other doses: less effective

## CCc1c2c(nc3ccc(OC(=O)N4CCC(N5CCCCC5)CC4)cc13)-c1cc3c(c(=O)n1C2)COC(=O)[C@]3(O)CC [CPT-11, 7-ethyl-10-[4-(1-piperidino)-1-piperidino]-carbonloxycamptothecin]
HT29 cells; CPT-11 alone, all doses (100-300 mg/kg intraperitoneally, days 0, 7, 14, 21), day 28, p<0.001
  average T/C: 0.3
[1]; CPT-11 alone at 250 mg/kg intraperitoneally
  Toxicity and mortality: induced significant toxicity and mortality
[1]; CPT-11 alone at 300 mg/kg intraperitoneally
  Toxicity and mortality: induced significant toxicity and mortality
